# Assay results from patent publication US11618746B2, “Inhibitors of APOL1 and methods of using same” (Vertex Pharmaceuticals Incorporated, priority 2018, dated 2023).
# Target: T1, G1 APOL1 (Homo sapiens, UniProt O14791, I384M/S342G)
# T1 construct: expressed in transfected cells
# T1 sequence (O14791 28-398 S342G/I384M): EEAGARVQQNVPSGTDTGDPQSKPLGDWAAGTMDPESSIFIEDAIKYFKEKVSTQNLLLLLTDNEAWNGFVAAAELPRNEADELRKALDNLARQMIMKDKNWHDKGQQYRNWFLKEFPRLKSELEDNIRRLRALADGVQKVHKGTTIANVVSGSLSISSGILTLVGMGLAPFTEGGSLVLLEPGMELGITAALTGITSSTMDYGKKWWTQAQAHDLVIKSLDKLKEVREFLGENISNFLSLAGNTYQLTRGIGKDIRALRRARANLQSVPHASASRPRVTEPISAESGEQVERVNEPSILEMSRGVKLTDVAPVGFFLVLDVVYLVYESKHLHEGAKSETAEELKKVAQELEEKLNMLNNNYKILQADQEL
# Assay: Acute APOL1 Thallium Assay with inducible stable clones of HEK 293 cells
# Type: cell-based
# Conditions: HEK T-Rex tetracycline-inducible cells expressing G1 APOL1 (clone G1 DC3.25); inhibition of thallium flux rate
# Description: Acute APOL1 Thallium Assay with Inducible Stable Clones of HEK 293 Cells
# Apolipoprotein L1 (APOL1) proteins form potassium-permeable cation pores in the plasma membrane. APOL1 risk variants (G1 and G2) induce greater potassium flux than G0 in HEK293 cells. This assay exploits the permeability of thallium (T1+) through ligand-gated potassium channels. The dye produces a bright fluorescent signal upon binding to T1+ conducted through potassium channels. The intensity of the T1+ signal is proportional to the number of potassium channels in the open state. Therefore, it provides a functional indication of the potassium channel activities. During the initial dye-loading step, the T1+ indicator dye as an acetoxymethyl (AM) ester enters the cells through passive diffusion. Cytoplasm esterases cleave the AM ester and relieve its active thallium-sensitive form. The cells are then stimulated with T1+. The increase of fluorescence in the assay represents the influx of T1+ into the cell specifically through the potassium channel (i.e. through APOL1 pores), providing a functional measurement of potassium channel/pore activity. The Thallium assay is conducted with cells expressing G1 APOL1.
# APOL1 Cell Line (HEK T-Rex Stable Inducible Cell Line) • HEK T-Rex System • Tetracycline (Tet) inducible mammalian expression system. • Stably express the Tet repressor to regulate transcription. • Expression under the full-length CMV promoter. • APOL1 stable inducible cell line Clone used: G1 DC3.25
# Tissue Culture Media • Cell Culture Medium • DMEM +10% FBS +P/S +5 μg/mL blasticidin+1 μg/mL puromycin. • 500 mL DMEM +55 mL FBS +5 mL P/S +280 μL blasticidin S HCl (10 mg/mL)+56 μL puromycin (10 mg/mL). • Cell Assay Medium • DMEM with 2% FBS+pen strep.
# Instruments and Equipment • Nuaire cell culture hood, Cat. No. 540-600 • 37° C./5% CO2 incubator link to robotic arm, Liconic: STX110 • Molecular Devices FLIPR^Tetra High throughput cellular screening system, Cat. No. FT0324, Molecular Devices • ThermoFisher MultiDrop 384, Cat. No. 5840300 • Biotek Microfill, Cat. No. ASF1000A-4145 • BioRad TC10 cell counter, Cat. No. 145-0010 Assay Procedures
# Cells Scaled Up from Frozen Vials • APOL1 G1 3.25 (HEK293 T-Rex) frozen vials: 5 million cells per vial • Step 1, Day 1: Defrost frozen vial into T-225. • Step 2, Day 5: (when 85% confluent): Split one T-225 at 3×10^6 cells per flask. • Step 3, Day 8: Splits cells to set up for the assay plates as described below.
# T-Rex APOL1 HEK cells are split twice per week to keep the confluence state below 85% of the culture flask surface area. Cells can be kept until passage 25. • Cell Culture Medium • DMEM high glucose +10% FBS, +P/S, +5 μg/mL blasticidin, +1 μg/mL puromycin. • 500 mL DMEM, +55 mL FBS, +5 mL P/S, +280 μL blasicidin 10 mg/mL, +56 μL Puromycin 10 mg/mL. • Assay Media • Opti-MEM reduced serum medium from Invitrogen.
# Preparation of Cell Assay Plates • Culture medium is removed from the x cm^2 T-flask by aspiration. • The cell monolayer is rinsed with PBS 1× at room temperature. PBS is removed by aspiration. • Cells are trypsinized using Trypsin. • The flasks are incubated at room temperature for 2-3 minutes. • Complete DMEM medium is then added. Cell suspension is then transferred to a 50 mL Falcon polypropylene tube. • Cells are then counted using a Biorad TC10 cell counter and the required amount of cells are centrifuged at 1200 RPM for 5 minutes. Required amount is 1.3×10^6 cells/mL APOL1 T-Rex HEK cells. • The pellet is suspended in the assay medium. • Using the MultiDrop, add 20 μL to each well (corresponds to 26000 cells total per well) of a 384-well black, transparent, flat bottom Poly-D coated plate. • Tetracycline as prepared in the following section is added to the cells before plating to induce APOL1 expression. • Plates are left at room temperature for 20 to 30 minutes before incubation at 37° C. and 5% CO2. […]
row,Structure (SMILES),IC50
1,C=C(C)c1cccc2c(CCC(=O)N[C@@H]3C(=O)NC[C@H]3O)c(-c3ccccc3)[nH]c12 [Compound 67],250 to 1000 nM
2,Cc1cc(F)c2[nH]c(-c3ccc(F)cc3)c(CCC(=O)N[C@H]3CCNC3=O)c2c1 [Compound 31],250 to 1000 nM
3,"O=C(CCc1c(-c2ccc(F)cc2)[nH]c2ccccc12)N[C@@H]1C(=O)NC[C@@H]1O [Compound 135, 3-[2-(4-fluorophenyl)-1H-indol-3-yl]-N-[(3S,4S)-4-hydroxy-2-oxo-pyrrolidin-3-yl]propanamide]",> 1000 nM
4,O=C(CCc1c(-c2ccc(F)cc2)[nH]c2c(F)cc(F)cc12)NC1CC2(CC2)NC1=O (stereo not drawn) [Compound 17],> 1000 nM
5,"CC(=O)O[C@@H]1CNC(=O)[C@H]1NC(=O)CCc1c(-c2ccc(F)cc2)[nH]c2c(F)cc(F)cc12 [Compound 4, [(3R,4S)-4-[3-[5,7-difluoro-2-(4-fluorophenyl)-1H-indol-3-yl]propanoylamino]-5-oxo-pyrrolidin-3-yl]acetate]",> 1000 nM
6,"O=C(N[C@@H]1C(=O)NC[C@H]1O)[C@H](O)Cc1c(-c2ccc(F)cc2)[nH]c2c(F)cc(F)cc12 [Compound 92, (2R)-3-[5,7-difluoro-2-(4-fluorophenyl)-1H-indol-3-yl]-2-hydroxy-N-[(3S,4R)-4-hydroxy-2-oxo-pyrrolidin-3-yl]propanamide]",> 1000 nM
7,"O=C(CCc1c(-c2ccc(F)cc2)[nH]c2cc(O)ccc12)N[C@@H]1C(=O)NC[C@H]1O (stereo in doubt) [Compound 110, 3-[2-(4-fluorophenyl)-6-hydroxy-1H-indol-3-yl]-N-[(3S,4R)-4-hydroxy-2-oxo-pyrrolidin-3-yl]propanamide]",> 1000 nM
8,Cc1cc(F)cc2c(CCC(=O)N[C@H]3CCNC3=O)c(-c3ccc(F)cc3)[nH]c12 [Compound 39],250 to 1000 nM
9,O=C(CCc1c(-c2ccc(F)cc2)[nH]c2c(F)cc(Cl)cc12)N[C@@H]1CCNC1=O [Compound 33],250 to 1000 nM
10,O=C(CCc1c(-c2ccccc2)[nH]c2c(C3CCOC3)cccc12)N[C@@H]1C(=O)NC[C@H]1O (stereo partly drawn) [Compound 65],250 to 1000 nM
11,O=C(CCc1c(-c2ccccc2)[nH]c2c(F)cccc12)N[C@H]1CCNC1=O [Compound 60],250 to 1000 nM
12,"COc1ccc2[nH]c(-c3ccc(F)cc3)c(CCC(=O)N[C@H]3CCNC3=O)c2c1 [Compound 56, 3-[2-(4-fluorophenyl)-5-methoxy-1H-indol-3-yl]-N-[(3S)-2-oxopyrrolidin-3-yl]propanamide]",> 1000 nM
13,Cc1cc(F)cc2c(CCC(=O)N[C@H]3CCNC3=O)c(-c3ccc(F)cc3)[nH]c12 [Compound 38],< 250 nM
14,CC(C)c1cccc2c(CCC(=O)N[C@@H]3C(=O)NC[C@H]3O)c(-c3ccccc3)[nH]c12 [Compound 68],250 to 1000 nM
15,"C[C@@H](Cc1c(-c2ccc(F)cc2)[nH]c2c(F)cc(F)cc12)C(=O)N[C@H]1CCNC1=O [Compound 90, (2S)-3-[5,7-difluoro-2-(4-fluorophenyl)-1H-indol-3-yl]-2-methyl-N-[(3S)-2-oxopyrrolidin-3-yl]propanamide]",> 1000 nM
16,"O=C1NC[C@@H](O)[C@@H]1NC(=O)[C@@H](O)Cc1c(-c2ccc(F)cc2)[nH]c2c(F)cc(F)cc12 [Compound 94, (2S)-3-[5,7-difluoro-2-(4-fluorophenyl)-1H-indol-3-yl]-2-hydroxy-N-[(3S,4R)-4-hydroxy-2-oxo-pyrrolidin-3-yl]propanamide]",> 1000 nM
17,"O=C(N[C@H]1CCNC1=O)[C@H](O)Cc1c(-c2ccc(F)cc2)[nH]c2c(F)cc(F)cc12 [Compound 93, (2R)-3-[5,7-difluoro-2-(4-fluorophenyl)-1H-indol-3-yl]-2-hydroxy-N-[(3S)-2-oxopyrrolidin-3-yl]propanamide]",> 1000 nM
18,"O=C(CCc1c(-c2ccc(F)cc2)[nH]c2ccccc12)N[C@H]1C(=O)NC[C@@H]1O [Compound 134, 3-[2-(4-fluorophenyl)-1H-indol-3-yl]-N-[(3R,4S)-4-hydroxy-2-oxo-pyrrolidin-3-yl]propanamide]",> 1000 nM
19,"CC(CC(=O)N[C@H]1CCNC1=O)c1c(-c2ccc(F)cc2)[nH]c2c(F)cc(F)cc12 (mixture of isomers) [Compound 96, 3-[5,7-difluoro-2-(4-fluorophenyl)-1H-indol-3-yl]-N-[(3S)-2-oxopyrrolidin-3-yl]butanamide]",> 1000 nM
20,C[C@H]1CNC(=O)[C@H]1NC(=O)CCc1c(-c2ccc(F)cc2)[nH]c2c(F)cc(F)cc12 [Compound 11],> 1000 nM

# Further lines, results first:
row,IC50,Structure (SMILES)
1,< 250 nM,O=C(CCc1c(-c2ccc(F)cc2)[nH]c2c(F)c(F)c(F)cc12)N[C@@H]1C(=O)NC[C@H]1O [Compound 79]
2,< 250 nM,"O=C(CCc1c(-c2ccccc2)[nH]c2c(C(F)(F)F)cc(F)cc12)N[C@@H]1C(=O)NC[C@H]1O [Compound 132, 3-[5-fluoro-2-phenyl-7-(trifluoromethyl)-1H-indol-3-yl]-N-[(3S,4R)-4-hydroxy-2-oxo-pyrrolidin-3-yl]propanamide]"
3,< 250 nM,Cc1ccc(-c2[nH]c3c(F)cc(F)cc3c2CCC(=O)N[C@@H]2CCNC2=O)cc1 [Compound 24]
4,< 250 nM,Cc1ccc(-c2[nH]c3c(F)cc(F)cc3c2CCC(=O)N[C@H]2CCNC2=O)cc1 [Compound 23]
5,< 250 nM,"C=Cc1cccc2c(CCC(=O)N[C@@H]3C(=O)NC[C@H]3O)c(-c3ccccc3)[nH]c12 [Compound 62, N-[(3S,4R)-4-hydroxy-2-oxo-pyrrolidin-3-yl]-3-(2-phenyl-7-vinyl-1H-indol-3-yl)propanamide]"
6,< 250 nM,"O=C(CCc1c(-c2ccc(F)cc2)[nH]c2c(C(F)F)cc(F)cc12)N[C@@H]1C(=O)NC[C@H]1O [Compound 100, 3-[7-(difluoromethyl)-5-fluoro-2-(4-fluorophenyl)-1H-indol-3-yl]-N-[(3S,4R)-4-hydroxy-2-oxo-pyrrolidin-3-yl]propanamide]"
7,< 250 nM,Cc1cccc2c(CCC(=O)N[C@@H]3C(=O)NC[C@H]3O)c(-c3ccc(F)cc3)[nH]c12 [Compound 71]
8,< 250 nM,O=C(CCc1c(-c2ccc(F)cc2)[nH]c2c(F)cc(OC(F)F)cc12)N[C@@H]1C(=O)NC[C@H]1O [Compound 106]
9,< 250 nM,O=C(CCc1c(-c2ccc(F)cc2)[nH]c2c(Cl)cc(F)cc12)N[C@H]1CCNC1=O [Compound 34]
10,< 250 nM,O=C(CCc1c(-c2ccccc2)[nH]c2c(F)cc(F)cc12)N[C@H]1CCNC1=O [Compound 25]
11,< 250 nM,O=C(CCc1c(-c2ccccc2)[nH]c2c(Cl)cccc12)N[C@@H]1C(=O)NC[C@H]1O [Compound 74]
12,< 250 nM,O=C(CCc1c(-c2ccccc2)[nH]c2c(C3CC3)cccc12)N[C@@H]1C(=O)NC[C@H]1O [Compound 63]
13,< 250 nM,Cc1ccc(-c2[nH]c3c(F)cc(F)cc3c2CCC(=O)N[C@@H]2C(=O)NC[C@H]2O)cc1 [Compound 22]
